Reference: patent EP0428423A2, “Aryloxy alkyl benzenes, processes for their preparation and pharmaceutical compositions containing them” (LIPHA S.A., priority 1989, dated 1991)
Like-named read-outs stand apart in the source and are kept apart here.

Legend:
[1] = test system: plasmas riches en plaquettes provenant de sang de rat; test: Platelet anti-aggregation in vitro, ADP-induced (Born aggregometer); type: cell-based
Protocol: Les études ont été réalisées sur des plasmas riches en plaquettes provenant de sang de rat, l'agrégation étant induite par addition d'acide Adénosine diphosphorique. Les courbes néphélométriques d'agrégation sont obtenues en utilisant un agrégomètre de type BORN, le plasma étant placé en incubation à 37° avec agitation continue de 1100 t/mn (cf. BORN G.V.R et CROSS J. - J. Physiol. 168 (1962) 178.

[2] = test system: rats mâles SHR (souche OKAMOTO); test: Antihypertensive action in the non-anaesthetised SHR rat (systolic blood pressure, sphygmomanometric method); type: in vivo; details: 60 mg/kg PO, acute or chronic not given, 24 h after dosing
Source text: L'étude a été effectuée sur des lots de rats mâles SHR (souche OKAMOTO) âgés de 16 semaines. La pression artérielle systolique est déterminée par la méthode sphygmomanométrique (électro sphygmogra- phe NARCO biosystems type PE 300). Les mesures de tension sont réalisées 24 heures après administration d'un composé de formule générale I, la pression artérielle systolique est calculée à partir de la moyenne de 6 à 8 mesures.

[3] = test system: RAT; test: Diuretic activity in the rat (hourly urine volume, sodium and potassium assay); type: in vivo; details: for minimal effective dose: po, read-out: Dose minimale active; for Pouvoir diurétique en % / Rapport Na/K en %: PO, at the dose (minimal active dose)
Source text: (§1) d'urine sont déterminés toutes les heures. Le dosage de sodium et du potassium est effectué par spectrophotométrie.

[4] = test system: SOURIS; test: Diuretic activity in the mouse (hourly urine volume, sodium and potassium assay); type: in vivo; details: for minimal effective dose: Mus musculus, po, read-out: Dose minimale active; for Pouvoir diurétique en % / Rapport Na/K en %: PO, at the dose (minimal active dose)
Source text: as §1

[5] = biological target: T1, ECHANGEUR D'ANIONS (Homo sapiens, UniProt P02730); test: Anion exchanger of human erythrocytes; type: cell-based, ERYTHROCYTES HUMAINS; details: for IC50: read-out: EFFET SUR L'ECHANGEUR D'ANIONS IC 50
T1 construct: systèmes de transport du sodium et du potassium des érythrocytes humains; endogenous in cells; host or cells: human erythrocytes
T1 sequence (P02730 1-911): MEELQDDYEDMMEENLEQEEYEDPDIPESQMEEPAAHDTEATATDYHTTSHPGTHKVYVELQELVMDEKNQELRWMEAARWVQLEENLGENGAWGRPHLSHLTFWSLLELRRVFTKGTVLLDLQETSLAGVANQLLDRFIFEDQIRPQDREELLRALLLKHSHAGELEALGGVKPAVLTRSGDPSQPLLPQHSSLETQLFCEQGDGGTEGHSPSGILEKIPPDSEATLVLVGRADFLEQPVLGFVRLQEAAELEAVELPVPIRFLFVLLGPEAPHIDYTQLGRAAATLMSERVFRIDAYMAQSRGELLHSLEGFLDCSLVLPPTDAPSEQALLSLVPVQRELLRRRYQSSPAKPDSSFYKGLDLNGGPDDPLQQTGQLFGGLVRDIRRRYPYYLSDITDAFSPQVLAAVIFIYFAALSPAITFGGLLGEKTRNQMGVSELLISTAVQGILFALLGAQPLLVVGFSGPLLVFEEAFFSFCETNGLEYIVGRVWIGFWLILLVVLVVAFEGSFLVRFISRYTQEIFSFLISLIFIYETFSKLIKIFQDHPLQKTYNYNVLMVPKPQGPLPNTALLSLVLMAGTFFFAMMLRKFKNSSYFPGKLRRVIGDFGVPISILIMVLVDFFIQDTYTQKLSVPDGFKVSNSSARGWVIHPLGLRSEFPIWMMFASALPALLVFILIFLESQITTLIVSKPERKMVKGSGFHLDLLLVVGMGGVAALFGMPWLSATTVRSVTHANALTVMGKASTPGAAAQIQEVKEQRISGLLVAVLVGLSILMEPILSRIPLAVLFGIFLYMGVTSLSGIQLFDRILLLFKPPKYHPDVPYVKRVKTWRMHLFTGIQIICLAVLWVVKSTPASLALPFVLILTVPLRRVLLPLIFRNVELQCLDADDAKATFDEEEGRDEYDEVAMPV
Source text: Cet effet a été étudié selon la méthodologie décrite par G. GARAY et coll. dans Naunyn-Schmidberg's Arch. Pharmakol. 334 (1986) 202-209 et dans Bioch. Pharm. 33 (1984) 2013-2020.

[6] = biological target: T2, COTRANSPORT Na-K (Homo sapiens, UniProt P55011); test: Na-K cotransport of human erythrocytes; type: cell-based, ERYTHROCYTES HUMAINS; details: human erythrocytes; for IC50: read-out: EFFET SUR LE COTRANSPORT Na-K IC 50
T2 construct: systèmes de transport du sodium et du potassium des érythrocytes humains; endogenous in cells; host or cells: human erythrocytes
T2 sequence (P55011 1-1212): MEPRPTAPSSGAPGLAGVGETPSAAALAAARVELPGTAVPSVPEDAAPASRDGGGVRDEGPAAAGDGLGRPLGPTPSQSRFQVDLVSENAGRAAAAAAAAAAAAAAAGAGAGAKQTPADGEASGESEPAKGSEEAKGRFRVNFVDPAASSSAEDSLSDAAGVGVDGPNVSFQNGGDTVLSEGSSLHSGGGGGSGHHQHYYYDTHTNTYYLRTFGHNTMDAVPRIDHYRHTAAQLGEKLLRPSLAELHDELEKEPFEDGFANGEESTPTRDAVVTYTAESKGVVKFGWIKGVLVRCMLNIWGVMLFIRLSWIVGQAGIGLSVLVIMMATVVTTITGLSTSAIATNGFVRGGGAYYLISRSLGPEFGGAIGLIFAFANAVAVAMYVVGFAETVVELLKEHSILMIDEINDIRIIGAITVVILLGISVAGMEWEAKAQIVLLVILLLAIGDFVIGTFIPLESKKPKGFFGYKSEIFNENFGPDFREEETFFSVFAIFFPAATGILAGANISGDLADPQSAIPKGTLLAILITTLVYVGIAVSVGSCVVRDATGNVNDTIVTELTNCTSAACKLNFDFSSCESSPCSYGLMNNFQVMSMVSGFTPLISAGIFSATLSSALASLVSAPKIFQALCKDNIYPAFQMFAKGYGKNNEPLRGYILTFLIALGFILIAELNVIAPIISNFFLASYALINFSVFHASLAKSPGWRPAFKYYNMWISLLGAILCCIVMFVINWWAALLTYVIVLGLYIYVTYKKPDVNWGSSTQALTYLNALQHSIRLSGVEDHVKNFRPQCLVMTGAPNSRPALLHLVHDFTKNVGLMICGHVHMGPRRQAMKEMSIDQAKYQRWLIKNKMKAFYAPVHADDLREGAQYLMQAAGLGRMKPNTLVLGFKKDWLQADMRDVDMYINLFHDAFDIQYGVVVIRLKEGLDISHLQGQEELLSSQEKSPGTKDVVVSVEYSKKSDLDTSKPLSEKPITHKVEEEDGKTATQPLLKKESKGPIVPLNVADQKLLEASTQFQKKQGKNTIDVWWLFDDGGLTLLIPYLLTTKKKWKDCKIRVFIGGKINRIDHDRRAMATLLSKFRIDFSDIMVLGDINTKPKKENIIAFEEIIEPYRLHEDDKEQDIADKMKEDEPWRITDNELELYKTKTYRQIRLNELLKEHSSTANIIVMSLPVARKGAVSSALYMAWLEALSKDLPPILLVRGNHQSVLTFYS
Source text: Cet effet a été étudié selon la méthodologie décrite par G. GARAY et coll. dans Naunyn-Schmidberg's Arch. Pharmakol. […] Pharm.

[7] = in vitro, aggregating agent ADP, rat platelet-rich plasma, 37°, M not defined in the text, mM printed only in the TICLOPIDINE line, read-out: M à 50

| IC50 [1, 7] [mM] | IC50 [5] [µM] | IC50 [6] [µM] | Compound | minimal effective dose ([3]; R = RAT, diuretic activity) [mg/kg] | minimal effective dose ([4]; S = SOURIS, diuretic activity) [mg/kg] | further results |
| --- | --- | --- | --- | --- | --- | --- |
| 0.4 |  |  | Oc1cccc(CCOc2ccc(F)cc2)c1 [Ex 174] |  |  |  |
|  | 25 |  | Cc1cccc(C)c1NC(=O)c1cc(S(N)(=O)=O)c(Cl)cc1O [XIPAMIDE, reference compound] |  |  |  |
| 0.8 | 4 | 170 | Oc1ccccc1CCOc1ccc(F)cc1 [ex 30] | 12 | 25 |  |
| 0.3 | 200 | 95 | Oc1ccccc1CCOc1ccc2ccccc2c1 [ex 56] |  |  | Pouvoir diurétique en % ([3]; R = RAT): R : Inactif S : Inactif; Rapport Na/K en % ([3]; R = RAT): R : Inactif S : Inactif; Pouvoir diurétique en % ([4]; S = SOURIS): R : Inactif S : Inactif; Rapport Na/K en % ([4]; S = SOURIS): R : Inactif S : Inactif |
| 0.95 | 75 | ~400 | CC(COc1ccc(F)cc1)c1ccccc1O (stereo not drawn) [ex 172] | 25 | 100 |  |

More lines, now with the values behind:

| Compound | IC50 [1, 7] [mM] | IC50 [5] [µM] | IC50 [6] [µM] | minimal effective dose ([3]; R = RAT, diuretic activity) [mg/kg] | minimal effective dose ([4]; S = SOURIS, diuretic activity) [mg/kg] | further results |
| --- | --- | --- | --- | --- | --- | --- |
| NS(=O)(=O)c1cc(C(=O)O)c(NCc2ccco2)cc1Cl [FUROSEMIDE, reference compound] |  |  |  | 12 | 25 | Variation de l'effet anti-hyper-tenseur 24 heures après produit [2]: FUROSEMIDE non actif HYDROCHLOROTHIAZIDE non actif |
| NS(=O)(=O)c1cc2c(cc1Cl)NCNS2(=O)=O [HYDROCHLOROTHIAZIDE] |  |  |  |  |  | Variation de l'effet anti-hyper-tenseur 24 heures après produit [2]: FUROSEMIDE non actif HYDROCHLOROTHIAZIDE non actif |
| COc1ccc(OC(C)=O)c(CCOc2ccc(F)cc2)c1 [ex 25] |  | 120 | > 600 | 12 | 25 |  |
| COc1ccc(O)c(CCOc2ccc(Cl)cc2)c1 [ex 26] |  | 40 | 70 | 50 | 100 |  |
| Oc1ccc(O)c(CCOc2ccccc2)c1 [ex 42] | 1.2 | 12 | 40 | 12 |  | Pouvoir diurétique en % ([4]; S = SOURIS): Inactif; Rapport Na/K en % ([4]; S = SOURIS): Inactif |
| Oc1c(CCOc2ccc(F)cc2)ccc2ccccc12 [ex 46] |  | 200 | 95 |  |  | Pouvoir diurétique en % ([3]; R = RAT): R : Inactif S : Inactif; Rapport Na/K en % ([3]; R = RAT): R : Inactif S : Inactif; Pouvoir diurétique en % ([4]; S = SOURIS): R : Inactif S : Inactif; Rapport Na/K en % ([4]; S = SOURIS): R : Inactif S : Inactif |
| Oc1ccc2ccccc2c1CCOc1ccc(F)cc1 [ex 48] |  |  |  | 25 | 100 |  |
| Oc1cc2c(cc1CCOc1ccc(F)cc1)OCCO2 [ex 107] |  |  |  | 25 | 100 |  |
| O=P(O)(O)Oc1ccccc1CCOc1ccc(F)cc1 [ex 134] |  |  |  |  |  | IC50 ([1]; Rattus norvegicus, Platelet, read-out: M à 50): 1.3 mM; IC50 ([1]; Rattus norvegicus, Platelet, read-out: V à 50): 1.5 mM; EFFET SUR LE COTRANSPORT Na-K IC 50 [6]: Non actif; minimal effective dose ([3]; Rattus norvegicus): 6 mg/kg; minimal effective dose [4]: 25 mg/kg; EFFET SUR L'ECHANGEUR D'ANIONS IC 50 [5]: Non actif |
| CC(=O)NCCCCCC(=O)Oc1ccccc1CCOc1ccc(F)cc1 [ex 139] |  |  |  | 25 | 25 |  |
| NC(=O)c1ccc(O)c(CCOc2ccc(F)cc2)c1 [ex 163] |  |  |  | 6 | 25 |  |
